# Results: ChEMBL document CHEMBL4665688, “Discovery of AB680: A Potent and Selective Inhibitor of CD73” (J Med Chem, 2020)
# Tests used:
# [1] = target: T1, 5'-nucleotidase (Homo sapiens, UniProt P21589); test: Inhibition of human CD73 expressed in CHO cells using AMP as substrate preincubated for 60 mins followed by substrate addition and measured after 60 mins by PiColorLock gold reagent based colorimetric assay; format: cell-based
# [2] = Clearance in Sprague-Dawley rat at 0.5 mg/kg, iv; format: ADME, organism-based; details: in vivo
# [3] = target: T1, 5'-nucleotidase; test: Inhibition of human CD73 using AMP as substrate by Malachite green phosphate reagent-based assay
# T1 sequence (P21589 whole entry): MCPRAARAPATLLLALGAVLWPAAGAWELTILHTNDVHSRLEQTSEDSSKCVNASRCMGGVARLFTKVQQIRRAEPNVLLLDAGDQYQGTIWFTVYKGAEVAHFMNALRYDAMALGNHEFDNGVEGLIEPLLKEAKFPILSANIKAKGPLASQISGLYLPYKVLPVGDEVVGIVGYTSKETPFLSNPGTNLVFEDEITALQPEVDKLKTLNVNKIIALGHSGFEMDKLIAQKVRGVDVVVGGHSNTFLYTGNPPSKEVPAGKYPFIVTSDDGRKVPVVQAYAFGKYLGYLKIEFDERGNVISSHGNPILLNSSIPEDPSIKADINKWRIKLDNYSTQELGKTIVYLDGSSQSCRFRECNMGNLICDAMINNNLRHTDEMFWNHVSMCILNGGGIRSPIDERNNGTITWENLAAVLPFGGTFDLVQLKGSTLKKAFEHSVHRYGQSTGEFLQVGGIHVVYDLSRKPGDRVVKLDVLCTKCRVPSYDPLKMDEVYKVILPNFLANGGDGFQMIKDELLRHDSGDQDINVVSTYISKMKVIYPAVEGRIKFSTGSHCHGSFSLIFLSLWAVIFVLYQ
SMILES,IC50 [1],clearance [2],IC50 [3]
Nc1nc(Cl)nc2c1ncn2[C@@H]1O[C@H](COP(=O)(O)CP(=O)(O)O)[C@@H](O)[C@@H]1F,3.4 nM,–,–
Nc1nc(Cl)nc2c1ncn2[C@@H]1O[C@H](COP(=O)(O)CP(=O)(O)O)[C@@H](O)[C@H]1O,5 nM,–,–
CCc1nc(NCc2ccccc2)c2ncn([C@@H]3O[C@H](COP(=O)(O)CP(=O)(O)O)[C@@H](O)[C@H]3O)c2n1,12 nM,–,–
C[C@H](Nc1nc(Cl)nc2c1ccn2[C@@H]1O[C@H](COP(=O)(O)CP(=O)(O)O)[C@@H](O)[C@H]1O)c1ccc(F)cc1,0.031 nM,0.5 mL/min/kg,–
CC(C)Nc1nc(Cl)nc2c1ncn2[C@@H]1O[C@H](COP(=O)(O)CP(=O)(O)O)[C@@H](O)[C@H]1O,0.7 nM,–,–
O=P(O)(O)CP(=O)(O)OC[C@H]1O[C@@H](n2cnc3c(NCc4ccncc4)nc(Cl)nc32)[C@@H](F)[C@@H]1O,3.6 nM,–,–
C[C@@H](Nc1nc(Cl)nc2c1ncn2[C@@H]1O[C@H](COP(=O)(O)CP(=O)(O)O)[C@@H](O)[C@@H]1F)c1ccccc1,1.6 nM,4.67 mL/min/kg,–
O=P(O)(O)CP(=O)(O)OC[C@H]1O[C@@H](n2ncc3c(NC4CCCC4)nc(Cl)nc32)[C@H](O)[C@@H]1O,0.027 nM,10.5 mL/min/kg,–
O=P(O)(O)CP(=O)(O)OC[C@H]1O[C@@H](n2cnc3c(NCc4ccccc4)nc(C(F)(F)F)nc32)[C@@H](F)[C@@H]1O,18 nM,–,–
CNc1nc(NCc2ccccc2)c2ncn([C@@H]3O[C@H](COP(=O)(O)CP(=O)(O)O)[C@@H](O)[C@H]3O)c2n1,5 nM,–,–
CN(c1nc(Cl)nc2c1ncn2[C@@H]1O[C@H](COP(=O)(O)CP(=O)(O)O)[C@@H](O)[C@H]1O)C1CCCC1,0.12 nM,–,–
C#Cc1nc(NCc2ccccc2)c2ncn([C@@H]3O[C@H](COP(=O)(O)CP(=O)(O)O)[C@@H](O)[C@@H]3F)c2n1,2 nM,–,–
O=P(O)(O)CP(=O)(O)OC[C@H]1O[C@@H](n2cnc3c(NCc4ccccc4)nc(CCc4ccccc4)nc32)[C@@H](F)[C@@H]1O,18 nM,–,–
CNc1nc(Cl)nc2c1ncn2[C@@H]1O[C@H](COP(=O)(O)CP(=O)(O)O)[C@@H](O)[C@@H]1F,12 nM,–,–
O=P(O)(O)CP(=O)(O)OC[C@H]1O[C@@H](n2cnc3c(NCc4ccccc4)nc(Cc4ccccc4)nc32)[C@@H](F)[C@@H]1O,1.5 nM,–,–
C[C@H](Nc1nc(Cl)nc2c1ncn2[C@@H]1O[C@H](COP(=O)(O)CP(=O)(O)O)[C@@H](O)[C@H]1O)c1ccccc1,0.3 nM,–,–
O=P(O)(O)CP(=O)(O)OC[C@H]1O[C@@H](n2cnc3c(NCc4ccccc4Cl)nc(Cl)nc32)[C@@H](F)[C@@H]1O,4.2 nM,–,–
C[C@@H](Nc1nc(Cl)nc2c1cnn2[C@@H]1O[C@H](COP(=O)(O)CP(=O)(O)O)[C@@H](O)[C@@H]1F)c1ccccc1,2.1 nM,9.33 mL/min/kg,–
O=P(O)(O)CP(=O)(O)OC[C@H]1O[C@@H](n2cnc3c(NCc4ccccc4)nc(Cl)nc32)[C@H](O)[C@@H]1O,0.3 nM,–,–
O=P(O)(O)CP(=O)(O)OC[C@H]1O[C@@H](n2ncc3c(NCc4ccccc4)nc(Cl)nc32)[C@H](O)[C@@H]1O,0.052 nM,3.33 mL/min/kg,–
O=P(O)(O)CP(=O)(O)OC[C@H]1O[C@@H](n2cnc3c(NCc4ccc(Cl)cc4)nc(Cl)nc32)[C@@H](F)[C@@H]1O,2.4 nM,–,–
C[C@H](Nc1nc(Cl)nc2c1ccn2[C@@H]1O[C@H](COP(=O)(O)CP(=O)(O)O)[C@@H](O)[C@H]1O)c1cccc(F)c1,0.032 nM,0.667 mL/min/kg,–
Nc1ncnc2c1ncn2[C@@H]1O[C@H](COP(=O)(O)CP(=O)(O)O)[C@@H](O)[C@H]1O [PHOSPHOMETHYLPHOSPHONIC ACID ADENOSYL ESTER],–,–,187 nM

# The next lines start with results.
IC50 [1],clearance [2],SMILES,IC50 [3]
0.031 nM,0.833 mL/min/kg,C[C@H](Nc1nc(Cl)nc2c1cnn2[C@@H]1O[C@H](COP(=O)(O)CP(=O)(O)O)[C@@H](O)[C@H]1O)c1cccc(F)c1,–
0.9 nM,–,O=P(O)(O)CP(=O)(O)OC[C@H]1O[C@@H](n2cnc3c(N4CCCC4)nc(Cl)nc32)[C@@H](F)[C@@H]1O,–
5.4 nM,0.483 mL/min/kg,C[C@H](Nc1nc(Cl)nc2c1cnn2[C@@H]1O[C@H](COP(=O)(O)CP(=O)(O)O)[C@@H](O)[C@@H]1F)c1ccccc1,–
3.3 nM,–,O=P(O)(O)CP(=O)(O)OC[C@H]1O[C@@H](n2cnc3c(NC4CCCC4)nc(C(O)c4ccccc4)nc32)[C@@H](F)[C@@H]1O (stereo partly specified),–
0.2 nM,–,O=P(O)(O)CP(=O)(O)OC[C@H]1O[C@@H](n2cnc3c(NC4CCCC4)nc(Cl)nc32)[C@H](O)[C@@H]1O,–
0.058 nM,2.83 mL/min/kg,C[C@@H](Nc1nc(Cl)nc2c1cnn2[C@@H]1O[C@H](COP(=O)(O)CP(=O)(O)O)[C@@H](O)[C@H]1O)c1ccccc1,–
4 nM,–,Cc1nc(NCc2ccccc2)c2ncn([C@@H]3O[C@H](COP(=O)(O)CP(=O)(O)O)[C@@H](O)[C@@H]3F)c2n1,–
0.6 nM,–,COCc1nc(NC2CCCC2)c2ncn([C@@H]3O[C@H](COP(=O)(O)CP(=O)(O)O)[C@@H](O)[C@@H]3F)c2n1,–
0.4 nM,2.5 mL/min/kg,O=P(O)(O)CP(=O)(O)OC[C@H]1O[C@@H](n2cnc3c(NC4CCCC4)nc(Cl)nc32)[C@@H](F)[C@@H]1O,–
0.7 nM,–,C[C@@H](Nc1nc(Cl)nc2c1ncn2[C@@H]1O[C@H](COP(=O)(O)CP(=O)(O)O)[C@@H](O)[C@H]1O)c1ccccc1,–
3.6 nM,–,CC(C)Nc1nc(Cl)nc2c1ncn2[C@@H]1O[C@H](COP(=O)(O)CP(=O)(O)O)[C@@H](O)[C@@H]1F,–
5.9 nM,–,O=P(O)(O)CP(=O)(O)OC[C@H]1O[C@@H](n2ncc3c(NCc4ccccc4)nc(Cl)nc32)[C@@H](F)[C@@H]1O,–
1.4 nM,–,O=P(O)(O)CP(=O)(O)OC[C@H]1O[C@@H](n2cnc3c(NC4CCCC4)nc(C(O)C4CC4)nc32)[C@@H](F)[C@@H]1O (stereo partly specified),–
1.1 nM,–,O=P(O)(O)CP(=O)(O)OC[C@H]1O[C@@H](n2cnc3c(N4Cc5ccccc5C4)nc(Cl)nc32)[C@@H](F)[C@@H]1O,–
5 nM,–,CCNc1nc(Cl)nc2c1ncn2[C@@H]1O[C@H](COP(=O)(O)CP(=O)(O)O)[C@@H](O)[C@@H]1F,–
0.15 nM,–,CN(c1nc(Cl)nc2c1ncn2[C@@H]1O[C@H](COP(=O)(O)CP(=O)(O)O)[C@@H](O)[C@@H]1F)C1CCCC1,–
1.3 nM,–,O=P(O)(O)CP(=O)(O)OC[C@H]1O[C@@H](n2cnc3c(NCc4cccc(Cl)c4)nc(Cl)nc32)[C@@H](F)[C@@H]1O,–

IC50 [1],clearance [2],SMILES,IC50 [3]
0.8 nM,–,O=P(O)(O)CP(=O)(O)OC[C@H]1O[C@@H](n2cnc3c(N[C@H]4CCOC4)nc(Cl)nc32)[C@@H](F)[C@@H]1O,–
48 nM,–,O=P(O)(O)CP(=O)(O)OC[C@H]1O[C@@H](n2cnc3c(NCc4ccccc4)nc(N4CCCC4)nc32)[C@H](O)[C@@H]1O,–
0.15 nM,4.5 mL/min/kg,O=P(O)(O)CP(=O)(O)OC[C@H]1O[C@@H](n2ncc3c(NC4CCCC4)nc(Cl)nc32)[C@@H](F)[C@@H]1O,–
0.028 nM,0.833 mL/min/kg,C[C@H](Nc1nc(Cl)nc2c1ccn2[C@@H]1O[C@H](COP(=O)(O)CP(=O)(O)O)[C@@H](O)[C@H]1O)c1ccccc1F,–
1.7 nM,–,O=P(O)(O)CP(=O)(O)OC[C@H]1O[C@@H](n2cnc3c(NC4CC4)nc(Cl)nc32)[C@H](O)[C@@H]1O,–
202 nM,–,O=P(O)(O)CP(=O)(O)OC[C@H]1O[C@@H](n2cnc3c(NC4CCCC4)nc(C(O)C4CCOCC4)nc32)[C@@H](F)[C@@H]1O (stereo partly specified),–
0.095 nM,–,C[C@H](Nc1nc(Cl)nc2c1cnn2[C@@H]1O[C@H](COP(=O)(O)CP(=O)(O)O)[C@@H](O)[C@H]1O)c1ccc(F)cc1,–
4.1 nM,0.35 mL/min/kg,C[C@H](Nc1nc(Cl)nc2c1ncn2[C@@H]1O[C@H](COP(=O)(O)CP(=O)(O)O)[C@@H](O)[C@@H]1F)c1ccccc1,–
0.7 nM,1 mL/min/kg,O=P(O)(O)CP(=O)(O)OC[C@H]1O[C@@H](n2cnc3c(NCc4ccccc4)nc(Cl)nc32)[C@@H](F)[C@@H]1O,–
2.6 nM,–,O=P(O)(O)CP(=O)(O)OC[C@H]1O[C@@H](n2cnc3c(NC4CC4)nc(Cl)nc32)[C@@H](F)[C@@H]1O,–
0.07 nM,0.667 mL/min/kg,C[C@H](Nc1nc(Cl)nc2c1cnn2[C@@H]1O[C@H](COP(=O)(O)CP(=O)(O)O)[C@@H](O)[C@H]1O)c1ccccc1F,–
2.2 nM,–,COc1nc(NCc2ccccc2)c2ncn([C@@H]3O[C@H](COP(=O)(O)CP(=O)(O)O)[C@@H](O)[C@H]3O)c2n1,–
1.3 nM,–,O=P(O)(O)CP(=O)(O)OC[C@H]1O[C@@H](n2cnc3c(OCc4ccccc4)nc(Cl)nc32)[C@@H](F)[C@@H]1O,–
1.3 nM,–,Cc1nc(NCc2ccccc2)c2ncn([C@@H]3O[C@H](COP(=O)(O)CP(=O)(O)O)[C@@H](O)[C@H]3O)c2n1,–
10 nM,–,O=P(O)(O)CP(=O)(O)OC[C@H]1O[C@@H](n2cnc3c(NCc4ccccc4)nc(-c4ccccc4)nc32)[C@@H](F)[C@@H]1O,–
18 nM,–,Nc1ncnc2c1ncn2[C@@H]1O[C@H](COP(=O)(O)CP(=O)(O)O)[C@@H](O)[C@H]1F,–
